From patent publication EP4582094A1, “ISCHEMIA-REPERFUSION INJURY INHIBITOR” (Tohoku University, priority 2022, dated 2024) come the findings set out here.

The nature of assay [1]: Mouse lung ischemia-reperfusion injury (pulmonary hilum clamping): physiological and histopathological evaluation of pulmonary edema. It counts as in vivo, C57BL/6J mice. On the procedure: GSSSG (MW 644) was dissolved in 0.1 M HCl to 25 mM GSSSG. Next, 20 µL of 25 mM GSSSG was added to 50 µL of 10x PBS and 430 µL of DW, and thus 500 µL of GSSSG solution (1 mM, 322 µg GSSSG) was adjusted in the end.
(§1) An intervention group (N = 4) in which 500 µL of the GSSSG solution was intraperitoneally administered to C57BL/6J mice (22 months old, male) an hour before pulmonary hilum clamping surgery and a control group (N = 4) in which 500 µL of normal saline solution (NSS) was intraperitoneally administered were set. The pulmonary hilum structure was clamped together for 60 minutes, and the IRI was evaluated an hour and a day after releasing clamping.
The wet to dry weight ratios were measured as physiological evaluation of pulmonary edema due to the IRI (N = 4 in each group).
The alveolar edema was scored, and the edema around the pulmonary arteries was quantified as histopathological evaluation of pulmonary edema due to the IRI (N = 6 in each group). The scoring was conducted according to the criteria below, and an average of 10 fields was calculated for each mouse. Regarding the edema around the pulmonary arteries, three to five pulmonary arteries per mouse were extracted, and an average of the area ratios of the pulmonary artery and the edema around the artery was calculated.
• 0 = no finding • 1 = finding in 1-25% • 2 = finding in 26-50% • 3 = finding in 51-75% • 4 = finding in 76-100%

Assay [2] has as its system HeLa cells. The experiment in a line: Mitochondrial membrane potential, JC-10 staining. It counts as cell-based. As to conditions: GSSSG added to medium at 1 µM, 10 µM and 100 µM; 24 hours; even at a low concentration; FIG. 3. On the procedure:
HeLa cells were cultured in DMEM (low glucose) medium containing 10% FBS, and GSSSG was added to the medium at different concentrations (1 µM, 10 µM and 100 µM). The cells were stained with JC-10, which is a reagent for detecting mitochondrial membrane potential, after 24 hours and observed with a confocal microscope, and the fluorescent intensities were measured with a plate reader.

Assay [3] relates to IL10. The experiment in a line: RT-PCR gene expression of inflammatory cytokines in lung tissue after IRI. The class given is in vivo, C57BL/6J mice. The note with it: lung tissue after the IRI; GSSSG administration group vs control; FIG. 2. The method, then: as §1
(§2) The inflammation due to the IRI was evaluated with gene expression of inflammatory cytokines in lung tissue. The wet to dry weight ratios were evaluated with N = 4 in each group, and the other items were evaluated with N = 5-6 in each group.

The test system of assay [4] is TNFα. The assay is described as above. The class given is in vivo, C57BL/6J mice. The note with it: lung tissue after the IRI; GSSSG administration group vs control; FIG. 2. On the procedure: as §1, §2
In assay [5] the test system is IL1b. The assay is described as above. The class given is in vivo, C57BL/6J mice. The note with it: lung tissue after the IRI; GSSSG administration group vs control; FIG. 2. On the procedure:
as §1, §2

The subject of assay [6] is IL6. The description is as above. The class given is in vivo, C57BL/6J mice. As to conditions: lung tissue after the IRI; GSSSG administration group vs control; FIG. 2. On the procedure:
as §1, §2

Assay [7] is described as follows: Rat isogeneic lung transplantation: ischemia-reperfusion injury after lung preservation. It counts as in vivo, Lewis rats. The note with it: lung preservation solution containing 300 µM GSSSG, six hours at 4°C, an hour after the reperfusion, vs control group. The method, then: In the GSSSG group (n=3), ET-TU solution containing GSSSG was used as the lung preservation solution. The GSSSG concentration was 300 µM, at which GSSSG could be mixed into EP-TU while maintaining pH 7 in a preliminary experiment. In the control group (n=3), ET-TU solution was used as it was as the lung preservation solution. As the rats, Lewis rats (male, 13-18 weeks, 275-350 g) were used both as the donors and the recipients.
The left lung of a donor was preserved for six hours at 4°C using the lung preservation solution (EP-TU) and transplanted into the left lung of a recipient rat. After reperfusion for an hour after the lung transplantation, the right pulmonary hilum (pulmonary artery and vein/bronchus) was blocked, and the degree of ischemia-reperfusion injury of the left lung was evaluated. As indicators for ischemia-reperfusion injury, the weight gain of the grafted lung (weight after transplantation - weight before transplantation) and the arterial oxygen tension (PaO2) after blocking the right pulmonary hilum were used.

Take `N[C@@H](CCC(=O)N[C@@H](CSSSC[C@H](NC(=O)CC[C@H](N)C(=O)O)C(=O)NCC(=O)O)C(=O)NCC(=O)O)C(=O)O` [GSSSG, glutathione trisulfide]: the “edema around the pulmonary arteries” value in assay [1] (500 µL GSSSG solution (1 mM) intraperitoneally an hour before clamping, area ratio of pulmonary artery and edema around it, vs control group, FIG. 1c) is on record as “relief of pulmonary edema was observed”. For the same molecule, the “score of alveolar edema” value in assay [1] (500 µL GSSSG solution (1 mM) intraperitoneally an hour before clamping, histopathological evaluation, vs control group, FIG. 1b) is “relief of pulmonary edema was observed”. The “wet to dry weight ratio” value in assay [1] (500 µL GSSSG solution (1 mM, 322 µg) intraperitoneally an hour before 60 min pulmonary hilum clamping, 22 months old male mice, an hour and a day after the IRI, vs control group (NSS), FIG. 1a) is “decreased with a significance”. Besides, in assay [2], the mitochondrial membrane potential result is reported as “increased with a significance”. The “gene expression of IL10” value in assay [3] was “decreased with a significance”. Also, the “gene expression of TNFα” value in assay [4] is listed as “no difference was observed”. The “gene expression of IL1b” value in assay [5] was “no difference was observed”. Moreover, in assay [6], the “gene expression of IL6” value is on record as “decreased with a significance”. For the same molecule, in assay [7] (FIG. 10A), the “arterial oxygen tension (PaO2) after blocking the right pulmonary hilum” value is given as “improved”. Also, in assay [7] (FIG. 10B), the “weight gain of the grafted lung” value is on record as “decreased”.
